These results are taken from patent US12091425B2 (AMGEN INC., priority 2016, dated 2024).

The target of assay [1] is T1, Mcl-1/Bim interaction, recombinant human Mcl-1 (171-327) (Homo sapiens, UniProt Q07820).
T1 construct: made in house
The experiment in a line: Cell free Mcl-1: Bim Affinity Assay (Mcl-1 HTRF). Type of assay: binding. A digest of the protocol: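 Displacement of biotinylated Bim 51-76 peptide is followed by TR-FRET. Incubation runs overnight. Duplicate points are fitted with a four-parameter sigmoid to yield IC50.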

For assay [2], the system named is OPM-2 human multiple myeloma cell line. Kind of assay: Cell Viability Assay (OPM-2 10 FBS). As to conditions: OPM-2 cells, CellTiter-Glo. Type of assay: cell-based. An outline of the steps:
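ATP-based luminescence (CellTiter-Glo) measured after a 16 h compound treatment of OPM-2 cells seeded at 3000 cells/well in 10% FBS medium. IC50 values derived by 4-parameter logistic fitting of serial dilutions.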

Setting [3] is: TR-FRET, 0.1 nM Mcl-1 (171-327), 0.05 nM biotin-Bim (51-76).
[4] abbreviates: Homo sapiens, OPM-2, 16 h, 16 h.
Where [5] appears, read: cell free Mcl-1:Bim TR-FRET, recombinant human Mcl-1 (171-327).

T1 sequence (Q07820 171-327): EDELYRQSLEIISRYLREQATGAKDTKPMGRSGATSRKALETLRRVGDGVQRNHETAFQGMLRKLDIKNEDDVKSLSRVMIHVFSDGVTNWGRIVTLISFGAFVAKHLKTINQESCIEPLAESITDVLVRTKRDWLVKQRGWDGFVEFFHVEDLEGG

On to `Cc1nnc(CO[C@H]2/C=C/CC[C@@H](C)S(=O)(=O)NC(=O)c3ccc4c(c3)N(C[C@@H]3CC[C@H]32)C[C@@]2(CCCc3cc(Cl)ccc32)CO4)o1` [Example 412, (1S,3′R,6′R,7′S,8′E,12′R)-6-chloro-12′-methyl-7′-((5-methyl-1,3,4-oxadiazol-2-yl)methoxy)-3,4-dihydro-2H,15′H-spiro[naphthalene-1,22′-[20]oxa[13]thia[1,14]diazatetracyclo[14.7.2.0^3,6.0^19,24]pentacosa [8,16,18,24]tetraen]-15′-one 13′,13′-dioxide], for which the IC50 in assay [1] (setting [3]) amounted to 0.267 nM; in assay [2] (setting [4]), 325 nM.

On to `C[C@@H]1[C@@H](C)C/C=C/[C@H](OCCBr)[C@@H]2CC[C@H]2CN2C[C@@]3(CCCc4cc(Cl)ccc43)COc3ccc(cc32)C(=O)NS1(=O)=O` [Example 14, (1S,3′R,6′R,7′S,8′E,11′S,12′R)-7′-(2-bromoethoxy)-6-chloro-11′,12′-dimethyl-3,4-dihydro-2H,15′H-spiro[naphthalene-1,22′-[20]oxa[13]thia[1,14]diazatetracyclo[14.7.2.0^3,6.0^19,24]pentacosa[8,16,18,24]tetraen]-15′-one 13′,13′-dioxide], for which the IC50 in assay [1] (setting [3]) was determined as 3.92 nM; in assay [2] (setting [4]), 1100 nM.

For `CC1C(C2CC2)CC=CC(O)C2CCC2CN2CC3(CCCc4cc(Cl)ccc43)COc3ccc(cc32)C(=O)NS1(=O)=O` (single isomer, unassigned) [Example 677], the IC50 in assay [1] (setting [5]) was found to be 9.57 nM; in assay [2] (setting [4]) it was 3550 nM.

In the case of `CO[C@H]1/C=C/[C@H](O)[C@@H]2CC[C@H]2CN2C[C@@]3(CCCc4cc(Cl)ccc43)COc3ccc(cc32)C(=O)NS(=O)(=O)[C@@H](C)C1` (single isomer, unassigned) [Example 488], the IC50 came to 5.21 nM in assay [1] (setting [5]) and 12900 nM in assay [2] (16 h).

Regarding `COC(=O)CO[C@H]1/C=C/CC[C@@H](C2CC2)S(=O)(=O)NC(=O)c2ccc3c(c2)N(C[C@@H]2CC[C@H]21)C[C@@]1(CCCc2cc(Cl)ccc21)CO3` (single isomer, unassigned) [Example 161], the IC50 was 1.31 nM in assay [1] (setting [3]) and 86 nM in assay [2] (16 h).

Turning to `CNC(=O)[C@@H](OC)[C@@H]1CC[C@@H]2CC[C@H]2CN2C[C@@]3(CCCc4cc(Cl)ccc43)COc3ccc(cc32)C(=O)NS(=O)(=O)[C@H](C)[C@@H](C)C1` (single isomer, unassigned) [Example 363], the IC50 in assay [1] (setting [3]) came to 0.793 nM; in assay [2] (16 h), 483 nM.

Take `O=C1NS(=O)(=O)N2CCOC[C@H]2C/C=C\[C@H](O)[C@@H]2CC[C@H]2CN2C[C@@]3(CCCc4cc(Cl)ccc43)COc3ccc1cc32` (single isomer, unassigned) [Example 344]: the values for the IC50 in assay [1] (setting [3]) and in assay [2] (setting [4]) were 2.11 nM and 912 nM, respectively.

Turning to `CC[C@@H]1CC/C=C/[C@H](OCc2nccn2C)[C@@H]2CC[C@H]2CN2C[C@@]3(CCCc4cc(Cl)ccc43)COc3ccc(cc32)C(=O)NS1(=O)=O` [Example 965, (1S,3′R,6′R,7′S,8′E,12′R)-6-chloro-12′-ethyl-7′-((1-methyl-1H-IMIDAZOL-2-yl)methoxy)-3,4-dihydro-2H,15′H-spiro[naphthalene-1,22′-[20]oxa[13]thia[1,14]diazatetracyclo[14.7.2.0^3,6.0^19,24]pentacosa [8,16,18,24]tetraen]-15′-one 13′,13′-dioxide], the IC50 in assay [1] (setting [3]) amounted to 0.403 nM; in assay [2] (Homo sapiens, OPM-2, 16 h, 16 h incubation), 693 nM.

`CO[C@H]1/C=C/C(CO)C(C)CS(=O)(=O)NC(=O)c2ccc3c(c2)N(C[C@@H]2CC[C@H]21)C[C@@]1(CCCc2cc(Cl)ccc21)CO3` (single isomer, unassigned) [Example 126]: the results for the IC50 in assay [1] (setting [3]) and in assay [2] (16 h) were 0.448 nM and 496 nM, respectively.

For the molecule `O=C1NS(=O)(=O)[C@H]2CC[C@@H]2C/C=C/[C@H](O)[C@@H]2CC[C@H]2CN2C[C@@]3(CCCc4cc(Cl)ccc43)COc3ccc1cc32` (single isomer, unassigned) [Example 90], the results for the IC50 in assay [1] (setting [3]) and in assay [2] (setting [4]) were 0.44 nM and 322 nM, respectively.
